In patent US20210046071A1, “TETRACYCLIC COMPOUNDS AND THEIR SALTS, COMPOSITIONS, AND METHODS FOR THEIR USE” (Senhwa Biosciences, Inc., priority 2019, published 2021):

How the values were obtained:
[1] = test system: multiple cancer cell lines; test: Alamar Blue cell viability assay, multiple cancer cell lines; type: cell-based; settings: Table 1
Experimental: (§1) The effect of Compound I on cell viability was assessed by Alamar Blue assay of metabolic activity in various cancer cell lines.

[2] = test system: NCI-H460; test: Alamar Blue cell viability assay, NCI-H460; type: cell-based; settings: Homo sapiens; NCI-H460, Lung
Experimental: as §1

[3] = test system: Ramos; test: Alamar Blue cell viability assay, Ramos; type: cell-based; settings: Homo sapiens, Lymphoma
Experimental: as §1

[4] = Dose escalation study in patients, toxicity and adverse events; type: in vivo, human
Experimental: Pharmacokinetic studies and dose escalation studies were conducted in adult patients with metastatic, recurrent, locally, advanced, or unresectable solid malignancy (patients with histologically and/or cytologically confirmed solid malignancy), who received prior anti-cancer treatment(s) until disease progression, at 10 different dose levels of Compound I. Groups 1-7 were administered intravenously on days 1 and 8 of a 4-week cycle at 50, 100, 150, 200, 250, 325, and 475 mg/m^2 (lyophilized formulation), respectively. Groups 8-10 were administered intravenously on days 1,8, and 15 of a 4-week cycle at 325, 475, and 650 mg/m^2 (lyophilized formulation), respectively. Each patient received each dose over 1 hour by IV infusion on days described above.

[5] = test system: Hs 605.T; test: Alamar Blue cell viability assay, Hs 605.T; type: cell-based; settings: Breast
Experimental: as §1

[6] = test system: SEM cells; test: Alamar Blue cell viability assay, SEM; type: cell-based; settings: Leukemia
Experimental: as §1

[7] = test system: MIA PaCa-2; test: Alamar Blue cell viability assay, MIA PaCa-2; type: cell-based; settings: Homo sapiens; MIA PaCa-2, Pancreatic
Experimental: as §1

[8] = test system: A549; test: Alamar Blue cell viability assay, A549; type: cell-based; settings: Homo sapiens; A549, Lung
Experimental: as §1

[9] = test system: BRCA2 knockout tumor cells; test: BRCA2 knockout tumor xenograft model; type: in vivo; settings: compared with isogenic wild type control cells
[10] = test system: NK92mi; test: Alamar Blue cell viability assay, NK92mi; type: cell-based; settings: Lymphoma
Experimental: as §1

[11] = test system: RPMI-8226; test: Alamar Blue cell viability assay, RPMI-8226; type: cell-based; settings: Homo sapiens; RPMI-8226, Myeloma
Experimental: as §1

[12] = test system: BJ-hTERT; test: Alamar Blue cell viability assay, BJ-hTERT; type: cell-based; settings: Normal
Experimental: as §1

[13] = test system: NCI-H1299; test: Alamar Blue cell viability assay, NCI-H1299; type: cell-based; settings: Homo sapiens; NCI-H1299, Lung
Experimental: as §1

[14] = test system: PANC-1; test: Alamar Blue cell viability assay, PANC-1; type: cell-based; settings: Homo sapiens; PANC-1, Pancreatic
Experimental: as §1

[15] = test system: EOL-1; test: Alamar Blue cell viability assay, EOL-1; type: cell-based; settings: Homo sapiens, EOL1; EOL-1, Leukemia
Experimental: as §1

[16] = test system: SK-OV-3; test: Alamar Blue cell viability assay, SK-OV-3; type: cell-based; settings: Homo sapiens; SK-OV-3, Ovarian
Experimental: as §1

[17] = test system: MDA-MB-361; test: Alamar Blue cell viability assay, MDA-MB-361; type: cell-based; settings: Homo sapiens; MDA-MB-361, Breast
Experimental: as §1

[18] = test system: LNCaP; test: Alamar Blue cell viability assay, LNCaP; type: cell-based; settings: Homo sapiens, Prostate
Experimental: as §1

[19] = test system: NCI-H520; test: Alamar Blue cell viability assay, NCI-H520; type: cell-based; settings: Homo sapiens; NCI-H520, Lung
Experimental: as §1

[20] = test system: normal cells; test: Alamar Blue cell viability assay, normal cells; type: cell-based; settings: compared with cancer cell lines
Experimental: as §1

Cc1cnc(CNC(=O)c2c(=O)c3ccc(N4CCCN(C)CC4)nc3n3c2sc2ccccc23)cn1 [Compound I, 2-(4-Methyl-[1,4]diazepan-1-yl)-5-oxo-5H-7-thia-1,11b-diaza-benzo[c]fluorene-6-carboxylic acid (5-methyl-pyrazin-2-ylmethyl)-amide]
Antiproliferative activity [1]: broad spectrum antiproliferative activity
EC50 [2]: 0.038 µM
EC50 [3]: 0.066 µM
Serious adverse events (SAEs) considered related to Compound I ([4]; Groups 1-10): Three
Treatment-related AE: hand-foot syndrome ([4]; Groups 1-10): 23%
Treatment-related AE: headache ([4]; Groups 1-10): 10%
Treatment-related AE: mucositis ([4]; Groups 1-10): 15%
Treatment-related AE: nausea ([4]; Groups 1-10): 44%
Treatment-related AE: photosensitivity of the eyes ([4]; Groups 1-10): 21%
Treatment-related AE: photosensitivity of the skin ([4]; Groups 1-10): 59%
Treatment-related AE: rash ([4]; Groups 1-10): 10%
Dose level toxicity (DLT) ([4]; Groups 1-10, 50 to 650 mg/m^2 IV): No dose level toxicity (DLT) were observed
Treatment-related non-DLT grade 3 photosensitivity events ([4]; in Groups 1, 5, and 8-10, reversible): 5
EC50 [5]: 0.116 µM
EC50 [6]: 0.018 µM
EC50 [7]: 0.074 µM
EC50 [8]: 4.9 µM
Activity in BRCA2 knockout tumor cells in a xenograft model [9]: wide therapeutic index of activity
EC50 [10]: 0.165 µM
EC50 [11]: 0.068 µM
EC50 [12]: 5.17 µM
EC50 [13]: 0.055 µM
EC50 [14]: 5 µM
EC50 [15]: 0.003 µM
EC50 [16]: 0.078 µM
EC50 [17]: 2.1 µM
EC50 [18]: 5.5 µM
EC50 [19]: 0.07 µM
Activity in normal cells [20]: significantly less active
